According to US9505761B2, “Bicyclic compounds and their use as antibacterial agents and beta-lactamase inhibitors” (FEDORA PHARMACEUTICALS INC., priority 2011, dated 2016):

How the values were obtained:
Test in all cases: β-lactamase inhibitory activity, spectrophotometric, nitrocefin
Assay type in all cases: biochemical
[1] = target: KPC-2 (Klebsiella pneumoniae, UniProt Q9F663)
Procedure: (§1) The inhibitory activities of present compounds against various enzymes were measured by spectrophotometric assay using […] and using nitrocefin as a substrate (J. Antimicrob. Chemother., 28, pp 775-776 (1991)). The concentration of inhibitor (IC50) which inhibits by 50% the reaction of hydrolysis of nitrocefin by the enzyme is determined.

[2] = target: TEM-1 (Escherichia coli, UniProt P62593); details: nitrocefin substrate, 490 nM as printed
Procedure: as §1

[3] = target: CMY-2 (Klebsiella pneumoniae, UniProt Q48434)
Procedure: as §1

[4] = target: CTX-M-9 (Escherichia coli, UniProt Q9L5C8)
Procedure: as §1

## O=C(NO[C@H]1CCNC1)[C@@H]1CC[C@@H]2CN1C(=O)N2OS(=O)(=O)O [Ex. 2, (2S,5R)-7-oxo-N-[(3S)-pyrrolidin-3-yloxy]-6-(sulfooxy)-1,6-diazabicyclo[3.2.1]octane-2-carboxamide]
[1]
  IC50: 73 ± 7 nM
[2]
  IC50: 136 ± 12 nM
[3]
  IC50: 32 ± 3 nM
[4]
  IC50: 127 ± 9 nM
